Assay results as given in patent US6727253B2, “Treatment of accidental extravasation of anthracyclines” (Antianthra APS, priority 1999, dated 2004).
Like-named read-outs stand apart in the source and are kept apart here.

Tests used:
[1] = system: wound after daunorubicin SC in swine; test: Pilot study on swine, daunorubicin SC; type: in vivo; settings: 1 ml daunorubicin SC, untreated
Procedure: (§1) A danish porker weighting approximately 30 kg was used. The animals were fully anesthesized and artificially ventilated during SC injection of 1 ml of anthracycline.

[2] = system: SC daunorubicin induced wounds in mice; settings: for AUC / DW / FW / TTW: Table A, pooled data
Procedure: The mice were euthanized after healing of all wounds.
The effect of various doses of ICRF-187 was investigated in Example 3.
Comparison of two concentrations of sc daunorubicin were compared with and without simultaneous treatment with ICRF-187 250 mg/kg.
ICRF-187 was administered at the same time as daunorubicin, 3 hours after, and 6 hours after, respectively. Saline served as control. The dose of daunorubicin was 3 mg/kg so and ICRF-187 was administered IP in a 250 mg/kg solution. Twenty-eight mice were used. The results are depicted in data sheet #6 and the mean AUCs are shown graphically in FIG. 5.
100 mg/kg ICRF-187 was injected into the subcutaneous papule produced by injected daunorubicin. This treatment was compared to intralesional saline control, IP saline control, and IP treatment with ICRF-187.
[…]. Seven experiments (n=6, 7, 7, 9, 9, 9, and 9) with 3 mg/kg daunorubicin SC plus saline IP at t=0 and seven experiments (n=6, 7, 7, 9, 9, 8, and 9) with 3 mg/kg daunorubicin SC plus 250 mg/kg ICRF-187 IP at t=0tin two experiments (n=9 and 4) the ICRF-187 doses were 62,5 mg/kg and 375 mg/kg IP, respectively, in two (n=7 and 9) the dose was 125 mg/kg. ICRF-187 250 mg/kg was administered IV in one (n=9).

[3] = system: wound after doxorubicin SC in swine; test: Pilot study on swine, doxorubicin SC; type: in vivo; settings: 3 mg doxorubicin SC, not receiving ICRF-187
Procedure: as §1

[4] = Example 3, daunorubicin 3 mg/kg sc + saline IP
[5] = Example 4, daunorubicin 1 mg/kg sc + saline IP
[6] = Example 4, daunorubicin 3 mg/kg sc + saline IP
[7] = Example 5, daunorubicin 1 mg/kg sc + saline IP
[8] = Example 5, daunorubicin 3 mg/kg sc + saline IP
[9] = Example 6, daunorubicin 3 mg/kg sc + saline IP
[10] = Example 7, daunorubicin 3 mg/kg sc + 0.05 ml saline IL
[11] = Example 7, daunorubicin 3 mg/kg sc + saline IP
[12] = daunorubicin 1 mg/kg SC + saline IP
[13] = daunorubicin 3 mg/kg SC + saline IP
[14] = daunorubicin 3 mg/kg SC + saline IP, listed as daunorubicin

## COc1cccc2c1C(=O)c1c(O)c3c(c(O)c1C2=O)C[C@@](O)(C(C)=O)C[C@@H]3O[C@H]1C[C@H](N)[C@H](O)[C@H](C)O1 [Daunorubicin]
[1]
  wound appearance: a large wound appeared
[2]; [4]
  Mean AUC: 764 mm^2 × days
  Mean DWw ± SEM: 29.8 ± 0.5 days
  Mean TTWw ± SEM: 4.8 ± 0.4 days
[2]; [5]
  Mean AUC: 365 mm^2 × days
  Mean DWw ± SEM: 25.5 ± 1.1 days
  Mean TTWw ± SEM: 7.3 ± 1.6 days
[2]; [6]
  Mean AUC: 1240 mm^2 × days
  Mean DWw ± SEM: 29.0 ± 0.9 days
  Mean TTWw ± SEM: 4.8 ± 0.3 days
[2]; [7]
  Mean AUC: 184 mm^2 × days
  Mean DWw ± SEM: 20.5 ± 1.3 days
  Mean TTWw ± SEM: 8.5 ± 0.7 days
[2]; [8]
  Mean AUC: 955 mm^2 × days
  Mean DWw ± SEM: 25.7 ± 0.7 days
  Mean TTWw ± SEM: 5.1 ± 0.2 days
[2]; [9]
  Mean AUC: 1398 mm^2 × days
  Mean DWw ± SEM: 27.4 ± 0.5 days
  Mean TTWw ± SEM: 5.0 ± 0.4 days
[2]; [10]
  Mean AUC: 1290 mm^2 × days
  Mean DWw ± SEM: 24.4 ± 0.6 days
  Mean TTWw ± SEM: 6.2 ± 0.3 days
[2]; [11]
  Mean AUC: 1144 mm^2 × days
  Mean DWw ± SEM: 26.9 ± 0.7 days
  Mean TTWw ± SEM: 6.0 ± 0.3 days
[2]; [12]
  AUC: 263 (± 56) mm^2×days
  DW: 22.6 (± 1.1) days
  FW: 88%
  TTW: 6.9 (± 0.7) days
[2]; [13]
  AUC: 1260 (± 72) mm^2×days
  DW: 26.6 (± 0.3) days
  FW: 96%
  TTW: 5.5 (± 0.2) days
[2]; [14]
  DW: 26.6 days
  TTW: 5.5 days

## COc1cccc2c1C(=O)c1c(O)c3c(c(O)c1C2=O)C[C@@](O)(C(=O)CO)C[C@@H]3O[C@H]1C[C@H](N)[C@H](O)[C@H](C)O1 [Doxorubicin]
[3]
  wound appearance: a wound appeared
